Measured values: patent publication EP0112481A1, “Beta-lactam compound” (KYOWA HAKKO KOGYO CO., LTD, priority 1982, dated 1984)
Converted amounts (≈) assume the structure as drawn.

How the values were obtained:
Test in all cases: Antibacterial effect, dilution method on Mueller-Hinton agar
Type in all cases: cell-based
[1] = tested on: Citrobacter freundii F 1526; details: F1526, Mueller-Hinton agar (pH 7.0)
[2] = tested on: Proteus vulgaris 6897; details: Mueller-Hinton agar (pH 7.0)
[3] = tested on: Enterobacter cloacae F 1510; details: F1510, Mueller-Hinton agar (pH 7.0)
[4] = tested on: Krebsiella pneumoniae 8045; details: Mueller-Hinton agar (pH 7.0)
[5] = tested on: Staphylococcus aureus 209-P; details: Mueller-Hinton agar (pH 7.0)
[6] = tested on: Escherichia coli NIHJJC-2; details: NIHJJC2, Mueller-Hinton agar (pH 7.0)
[7] = tested on: Proteus mirabilis 1287; details: Mueller-Hinton agar (pH 7.0)
[8] = tested on: Serratia marcescens T-26; details: T26, Mueller-Hinton agar (pH 7.0)

| SMILES | MIC [1] [µg/mL] | MIC [2] [µg/mL] | MIC [3] [µg/mL] | MIC [4] [µg/mL] | MIC [5] [µg/mL] | MIC [6] [µg/mL] | MIC [7] [µg/mL] | MIC [8] [µg/mL] |
| --- | --- | --- | --- | --- | --- | --- | --- | --- |
| CON=C(C(=O)NC1C(=O)N2C(C(=O)O)=C(C=Cc3nnnn3C)CCC12)c1csc(N)n1 (racemic) [Compound of Ref. Ex. 9, (±)-6,7-cis-7-[2-(2-aminothiazol-4-yl)-2-syn-methoxyiminoacetamido]-3-[2-(1-methyl-1H-tetrazol-5-yl)vinyl]-1-azabicyclo [4.2.0] oct-2-en-8-oxo-2-carboxylic acid] | 0.2 (≈ 0.422 µM) | 0.01 (≈ 0.0211 µM) | 0.2 (≈ 0.422 µM) | 0.1 (≈ 0.211 µM) | 1.56 (≈ 3.29 µM) | 0.01 (≈ 0.0211 µM) | 0.01 (≈ 0.0211 µM) | 1.56 (≈ 3.29 µM) |
| CCOC(=O)C=CC1=C(C(=O)O)N2C(=O)C(NC(=O)C(=NOC)c3csc(N)n3)C2CC1 (racemic) [Compound of Ref. Ex. 10, (±)-6,7-cis-7-[2-(2-aminothiazol-4-yl)-2-syn-methoxyiminoacetamido]-3-(2-ethoxycarbonvlviayl)-1-azabicyclo [4.2.0]oct-2-en-8-oxo-2-carboxylic acid] | 0.78 (≈ 1.68 µM) | 0.01 (≈ 0.0216 µM) | 1.56 (≈ 3.37 µM) | 0.39 (≈ 0.841 µM) | 6.25 (≈ 13.5 µM) | 0.2 (≈ 0.432 µM) | 0.1 (≈ 0.216 µM) | 3.13 (≈ 6.75 µM) |
